According to US20220143035A1, “METHODS FOR TREATING AUTOIMMUNE OR AUTOINFLAMMATORY DISEASE” (UNIVERSITY OF WASHINGTON, priority 2019, published 2022):

Experiments:
Assay type in all cases: cell-based, human
[1] = test system: IRF3 S386 phosphorylation; test: Western blot of IRF3 pS386 in HEK 293 cells after DNA damage or stress agents; details: STING KO HEK 293 cells, up to 12 hours; 50 μM Etoposide, 500 nM Thapsigargin
[2] = test system: endoplasmic reticulum (ER) stress response; test: Endoplasmic reticulum stress response in HEK 293 cells; details: 500 nM Thapsigargin, control
[3] = test system: histone H2AX on serine 139 (γ-H2AX); test: Western blot of γ-H2AX phosphorylation in CT DNA-treated STING KO U937 cells; details: PMA-differentiated STING KO U937 cells, CT DNA 16 hours; Ku-60019 0.125-1 μM, Nu-7441 0.25-2 μM; FIG. 4A
Description: (§1) FIG. 4A-K: Human DNA-PK is essential for the SIDSP. (A) PMA-differentiated STING KO U937 cells were treated with CT DNA for 16 hours in the presence of DMSO control, increasing concentrations of Ku-60019 ATM inhibitor [0.125, 0.25, 0.5, 1 μM], or Nu-7441 DNA-PK inhibitor [0.25, 0.5, 1, 2 μM], followed by western blot analysis of γ-H2AX phosphorylation. (B) PMA-differentiated STING KO U937 cells were treated with CT DNA for 16 hours in the presence of inhibitors as described in (A), followed by RT-qPCR analysis of IFNB1 mRNA expression. n.s.: not significant; ***:p<0.001. n=3 independent treatments per condition. (C) PMA-differentiated STING KO U937 cells were treated with CT DNA or RIG-I ligand in the presence of DMSO or Nu-7441 for 16 hours, followed by RT-qPCR analysis of IFNB1 mRNA expression. n.s.: not significant; ***:p<0.001. n=3 independent treatments per condition. […] (F) Primary human foreskin fibroblasts (HFF) and primary human hepatocytes from male (♂) and female (♀) donors were assessed for cGAS, STING, and DNA-PK proteins by fractionation into cytosol (C) and nuclear (N) extracts, followed by western blot. […] Multiple t-tests with significance determined by the Holm-Sidak method were used to compare IFNB1 in DMSO versus Nu7441 treated cells. *:p<0.05, ****:P<.0001. n=3 independent treatments per condition. […]

[4] = test system: STING-independent DNA sensing pathway (SIDSP); test: RT-qPCR of IFNB1 mRNA in CT DNA-treated STING KO U937 cells; details: PMA-differentiated STING KO U937 cells, CT DNA 16 hours; for SIDSP activation (IFNB1 mRNA expression): Ku-60019 0.125-1 μM, Nu-7441 0.25-2 μM, FIG. 4B
Description: FIG. 4A-K: Human DNA-PK is essential for the SIDSP. (A) PMA-differentiated STING KO U937 cells were treated with CT DNA for 16 hours in the presence of DMSO control, increasing concentrations of Ku-60019 ATM inhibitor [0.125, 0.25, 0.5, 1 μM], or Nu-7441 DNA-PK inhibitor [0.25, 0.5, 1, 2 μM], followed by western blot analysis of γ-H2AX phosphorylation. (B) PMA-differentiated STING KO U937 cells were treated with CT DNA for 16 hours in the presence of inhibitors as described in (A), followed by RT-qPCR analysis of IFNB1 mRNA expression. n.s.: not significant; ***:p<0.001. n=3 independent treatments per condition. (C) PMA-differentiated STING KO U937 cells were treated with CT DNA or RIG-I ligand in the presence of DMSO or Nu-7441 for 16 hours, followed by RT-qPCR analysis of IFNB1 mRNA expression. n.s.: not significant; ***:p<0.001. n=3 independent treatments per condition. (D) Western blot analysis of DNA-PK and STING in clonal lines of H1 control, STING KO and STING/DNA-PK DKO U937 cells. (E) PMA-differentiated STING KO and STING/DNA-PK DKO U937 cells were treated with CT DNA for 16 hours in DMSO or 2 μM Nu-7441, followed by RT-qPCR analysis of IFNB1 mRNA expression, normalized to Lipo control-treated cells. **:p<0.01. n=3 independent treatments per condition. (F) Primary human foreskin fibroblasts (HFF) and primary human hepatocytes from male (♂) and female (♀) donors were assessed for cGAS, STING, and DNA-PK proteins by fractionation into cytosol (C) and nuclear (N) extracts, followed by western blot. The nuclear extract was treated with salt-active nuclease to remove genomic DNA. (G) The indicated cell lines were stimulated with cGAMP for 16 hours before harvest and RT-qPCR analysis of IFNB1 mRNA expression. […] Multiple t-tests with significance determined by the Holm-Sidak method were used to compare IFNB1 in DMSO versus Nu7441 treated cells. *:p<0.05, ****:P<.0001. n=3 independent treatments per condition. […]

[5] = test system: RNA-activated RIG-I-MAVS pathway; test: RT-qPCR of IFNB1 mRNA in RIG-I ligand-treated STING KO U937 cells; details: PMA-differentiated STING KO U937 cells, RIG-I ligand 16 hours, DMSO or Nu-7441; FIG. 4C
Description: as §1

[6] = test system: WT U937 cells; test: Global mRNA-Seq analysis in WT (H1 control) U937 cells
Source text: FIG. 5A-F: The DNA-PK SIDSP activates a broad gene expression program. (A) Heat map representation of log 2 Fold Change in gene expression for the 124 antiviral response genes with significant differential expression in one of the four comparisons. The key includes a histogram in cyan plotting the distribution of log 2 Fold Change values for all the included genes. Data represent the average of three independent treatments per condition. […] Data represent the average of three independent treatments per condition. […] Data represent the average of three independent treatments per condition. (D) In H1 control U937 cells, the 16 hour CT DNA-activated log 2 Fold Change was plotted for DMSO control-treated cells on the x-axis and for Nu-7441-treated cells on the y-axis. Each dot represents a single gene that was differentially expressed at 16 hours in DMSO-treated cells (n=1024). […]
FIG. 8A-E: Normalized mRNA-Seq data comparing WT and STING KO U937 cells. (A) Boxplot depicting normalized read counts in log 2CPM format across all 36 samples. […] (C) Normalized read counts in log 2CPM format, comparing Lipo-treated WT U937 cells to Lipo-treated STING KO U937 cells. (D) Normalized read counts in log 2CPM format, comparing Lipo-treated WT U937 cells pretreated with DMSO or 2 μM N-7441. (E) Normalized read counts in log 2CPM format, comparing Lipo-treated STING KO cells pretreated with DMSO or 2 μM N-7441. […]

[7] = test system: STING KO U937 cells (DNA-PK SIDSP); test: Global mRNA-Seq analysis in STING KO U937 cells
Source text: (A) Heat map representation of log 2 Fold Change in gene expression for the 124 antiviral response genes with significant differential expression in one of the four comparisons. The key includes a histogram in cyan plotting the distribution of log 2 Fold Change values for all the included genes. Data represent the average of three independent treatments per condition. […] Data represent the average of three independent treatments per condition. […] Data represent the average of three independent treatments per condition. (D) In H1 control U937 cells, the 16 hour CT DNA-activated log 2 Fold Change was plotted for DMSO control-treated cells on the x-axis and for Nu-7441-treated cells on the y-axis. Each dot represents a single gene that was differentially expressed at 16 hours in DMSO-treated cells (n=1024). […] A Wilcoxon matched pairs signed rank test was used to determine the p-value between DMSO control and Nu-7441-treated samples after DNA stimulation. Data represent the average of three independent treatments per condition. […]
Total RNA was added directly to lysis buffer from the SMART-Seq v4 Ultra Low Input RNA Kit for Sequencing (Takara), and reverse transcription was performed followed by PCR amplification to generate full length amplified cDNA. […] Libraries were pooled and quantified using a Qubit® Fluorometer (Life Technologies). Dual-index, single-read sequencing of pooled libraries was carried out on a HiSeq2500 sequencer (Illumina) with 58-base reads, using HiSeq™ v4 Cluster and SBS kits (IIlumina) with a target depth of 5 million reads per sample.

Row | SMILES | activation of IRF3 phosphorylation [1] | endoplasmic reticulum (ER) stress response [2] | DNA-activated phosphorylation of the histone H2AX on serine 139 (γ-H2AX) [3] | SIDSP activation (IFNB1 mRNA expression) [4] | DNA-activated antiviral response (IFNB1 mRNA expression) ([4]; DMSO or Nu-7441, FIG. 4C) | RNA-activated RIG-I-MAVS pathway (IFNB1 mRNA expression) [5] | differentially expressed genes on which the inhibitor had a (mild) inhibitory effect ([6]; 16 hours post DNA transfection, 2 μM Nu-7441 vs vehicle, 718/1024 genes, FIG. 5D) [%] | effect on gene expression in the absence of DNA stimulation ([6]; Lipo-treated, 2 μM, FIG. 8D) | differentially expressed genes on which the inhibitor had an inhibitory effect ([7]; STING KO U937 cells, 16 hours post DNA transfection, 2 μM Nu-7441 vs vehicle, 1254/1327 genes, up- and downregulated, FIG. 5E) [%] | effect on gene expression in the absence of DNA stimulation ([7]; STING KO U937 cells, Lipo-treated, 2 μM, FIG. 8E) | gene expression triggered by the SIDSP ([7]; summary statement in discussion)
1 | C/C=C(/C)C(=O)O[C@H]1C(C)=C2[C@H]([C@@H]1OC(=O)CCCCCCC)[C@@](C)(OC(C)=O)C[C@H](OC(=O)CCC)[C@@]1(O)[C@H]2OC(=O)[C@@]1(C)O [thapsigargin] | but not IRF3, HSPA8, or H2AX phosphorylation | induced a potent endoplasmic reticulum (ER) stress response | – | – | – | – | – | – | – | – | –
2 | C[C@@H]1CN(CC(=O)Nc2ccc3c(c2)Cc2cccc(-c4cc(=O)cc(N5CCOCC5)o4)c2S3)C[C@H](C)O1 [Ku-60019] | – | – | reduced the DNA-activated phosphorylation of the histone H2AX on serine 139 (γ-H2AX) in a concentration-dependent manner | unaffected | – | – | – | – | – | – | –
3 | O=c1cc(N2CCOCC2)oc2c(-c3cccc4c3sc3ccccc34)cccc12 [Nu-7441, 8-(dibenzo[b,d]thiophen-4-yl)-2-morpholino-4H-chromen-4-one] | – | – | reduced the DNA-activated phosphorylation of the histone H2AX on serine 139 (γ-H2AX) in a concentration-dependent manner | potently blocked | blocked the DNA-activated antiviral response | had no effect | 70.1 | no significant effect | 94.5 | no significant effect | potently reduced nearly all gene expression
